Measurements published in patent publication US20240335544A1, “M6PR CELL SURFACE RECEPTOR BINDING COMPOUNDS AND CONJUGATES” (LYCIA THERAPEUTICS, INC., priority 2021, published 2024).
Where two headings read alike, the source gives them in different places. One block for each compound: values may come before it.

How the values were obtained:
[1] = tested on: Jurkat cells; test: Conjugate-mediated uptake of IgG2a-Alexa488 into Jurkat cells; type: cell-based; conditions: one hour incubation, FIG. 12; for uptake into Jurkat cells (cell fluorescence vs conjugate concentration): DAR 9-11 per conjugate
Description: (§1) The anti-IgG2a conjugates were bound to IgG2a-Alexa488, as follows: equal molar ratios of anti-IgG2a and IgG2a-Alexa488 were added in tissue culture media for 30 minutes at room temperature. The resulting anti-IgG2a:IgG2a antibody-Alexa488 compositions were added to Jurkat cells (100 k cells/50 ul per well, n=2), and Alexa488 fluorescence levels were measured (via Alexa488 measurement) at 1 hour and 24 hours by flow cytometry. As the fluorescently labelled target (IgG2a antibody) accumulates in cells, the fluorescence presents a way to measure total intracellular uptake by cells over time.

[2] = target: CI-M6PR (Homo sapiens, UniProt P11717); test: Human CI-M6PR binding assay (ELISA); parameters: purchased R&D 6418-GR-050
Description: Nunc black solid bottom MaxiSorp plates were allowed to incubate overnight at 4° C. coated with 1 μg/mL of recombinant human CI-M6PR protein (R&D, 6418-GR-050) in 50 μL PBS. The next day, coating was decanted and plates were washed 3× with PBS. Wells were blocked with 350 μL of 3% BSA-PBS for 1 hour at room temperature. […] 50 μL of diluted conjugates were added to the plate and allowed to incubate at room temperature for 2 hours. After incubation, solutions in plate were decanted and washed with 350 μL of 0.05% PBS-Tween20 three times, drying the plate each wash on a clean paper towel. 50 μL of peroxidase AffiniPure Mouse Anti-Human IgG (Jackson Immuno, 209-035-088) diluted in 3% BSA-PBS to […] was added to the plate and allowed to incubate for 1 hour at room temperature in the dark. After incubation, solutions in plate were decanted and washed with 350 μL of 0.05% PBS-Tween20 3 times, drying the plate each wash on a clean paper towel. […] 50 μL of QuantaBlu solution was added to wells and allowed to incubate for 5-10 minutes at room temperature. After incubation, plates were read on a Perkin Elmer EnVision using photometric 340 and Umbelliferone 460 filter sets for excitation and emission, respectively. Data analysis and non-linear curve-fitting was performed using GraphPad Prism.

[3] = target: T1, M6PR (Domains I-9, R&D Systems) (Homo sapiens, UniProt P11717); test: General M6PR binding assay (fluorescence polarization); conditions: Table 16F, unconjugated compounds, 100 nM M6PR, 1 nM probe, 2 hr incubation
T1 construct: with 100 nM M6PR (Domains I-9, R&D Systems) and 1 nM probe; purchased R&D Systems
Description: M6PR binding was measured in black 96-well plates using a fluorescence polarization assay. A fluorescent probe consisting of a reference M6Pn ligand linked to Cy5 was synthesized. Test compounds were resuspended in DMSO and 3-fold serial dilutions were made at 100× final concentrations. Binding reactions were conducted in 100 μl final volume in 20 mM HEPES (pH 7.5) 100 mM NaCl 0.015% Tween-20 1% DMSO with 100 nM M6PR (Domains I-9, R&D Systems) and 1 nM probe. Fluorescence polarization was measured using Xex=620 nm, λem=688 nm on an Envision plate reader (Perkin Elmer) after 2 hr incubation time. Dose responses were conducted in duplicate and normalized to the response with DMSO (high) and 1 μM reference compound (low) on each plate. IC50 values were determined by fitting to 4-parameter curves in GraphPad Prism.

[4] = tested on: Hep G2 cells; test: Conjugate-mediated uptake of IgG2a into Hep G2 cells; type: cell-based, human; conditions: one hour incubation, FIG. 13; 816 DAR6, 817 DAR4, 520 (I-7) DAR4
Description: as §1
The uptake of antibody conjugates of exemplary M6PR or ASGPR binding compounds was assessed in Hep G2 cells, using a method similar to that described in Example above. […] Compounds 816 and 817 were prepared according to methods described in International Application No. PCT/US2021/012846, filed Jan. 8, 2021.

[5] = tested on: wild type (WT) K562 cells; test: CI-M6PR mediated uptake of Alexa488-IgE in wild type K562 cells; type: cell-based; conditions: omalizumab conjugates, average loading DAR9, FIG. 14
Description: The uptake of exemplary omalizumab (anti-IgE) antibody conjugates of compound 520 (I-7) (average loading DAR9) versus exemplary compound 537 (I-66) (average loading DAR9) was assessed in wild type (WT) K562 cells and CI-M6PR knockout (KO) cells using a similar method of that described above.

[6] = antibody conjugate, average loading DAR 9, read-out: EC50 (nM) in M6PR binding assay

Sequence of CI-M6PR (P11717 41-1365 limits assumed): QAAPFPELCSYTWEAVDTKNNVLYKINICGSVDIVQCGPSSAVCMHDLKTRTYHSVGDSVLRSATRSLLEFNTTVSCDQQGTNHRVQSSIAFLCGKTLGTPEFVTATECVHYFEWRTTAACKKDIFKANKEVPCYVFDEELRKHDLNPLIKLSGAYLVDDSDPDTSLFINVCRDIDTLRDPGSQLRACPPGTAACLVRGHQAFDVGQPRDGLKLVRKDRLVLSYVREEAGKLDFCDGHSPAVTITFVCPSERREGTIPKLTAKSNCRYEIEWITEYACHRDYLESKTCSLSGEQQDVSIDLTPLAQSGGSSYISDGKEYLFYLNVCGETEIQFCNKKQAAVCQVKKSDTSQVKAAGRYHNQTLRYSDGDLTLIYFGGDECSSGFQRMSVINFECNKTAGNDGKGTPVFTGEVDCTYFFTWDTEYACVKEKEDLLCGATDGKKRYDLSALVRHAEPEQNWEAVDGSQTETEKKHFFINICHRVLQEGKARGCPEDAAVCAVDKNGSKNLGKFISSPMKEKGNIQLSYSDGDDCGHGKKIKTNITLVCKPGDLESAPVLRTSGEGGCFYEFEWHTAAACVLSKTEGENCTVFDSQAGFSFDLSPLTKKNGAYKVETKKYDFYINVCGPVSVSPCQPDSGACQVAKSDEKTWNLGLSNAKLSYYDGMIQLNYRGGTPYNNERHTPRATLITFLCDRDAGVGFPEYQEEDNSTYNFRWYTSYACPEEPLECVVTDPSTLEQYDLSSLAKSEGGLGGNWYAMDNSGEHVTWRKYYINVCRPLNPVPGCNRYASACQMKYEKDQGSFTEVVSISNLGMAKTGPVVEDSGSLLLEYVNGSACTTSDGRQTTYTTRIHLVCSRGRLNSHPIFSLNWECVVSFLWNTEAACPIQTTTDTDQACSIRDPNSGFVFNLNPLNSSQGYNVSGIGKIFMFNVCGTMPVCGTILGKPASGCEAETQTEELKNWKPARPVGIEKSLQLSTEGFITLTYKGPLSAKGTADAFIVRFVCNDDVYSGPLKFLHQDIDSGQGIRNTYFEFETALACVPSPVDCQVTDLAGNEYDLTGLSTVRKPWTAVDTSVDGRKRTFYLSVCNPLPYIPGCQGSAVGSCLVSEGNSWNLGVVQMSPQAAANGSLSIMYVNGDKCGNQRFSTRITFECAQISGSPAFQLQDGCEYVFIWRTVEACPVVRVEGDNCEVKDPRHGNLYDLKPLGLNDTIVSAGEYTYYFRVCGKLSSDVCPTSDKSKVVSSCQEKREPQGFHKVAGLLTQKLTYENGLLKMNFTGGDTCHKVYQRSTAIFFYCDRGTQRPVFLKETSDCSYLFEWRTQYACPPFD
T1 sequence (P11717 41-1365 limits assumed): as above

SMILES: C[C@H](NC(=O)CCCn1cc(CCCCNC(=S)Nc2ccc(O[C@H]3O[C@H](CCP(=O)(O)O)[C@@H](O)[C@H](O)[C@@H]3O)cc2)nn1)C(=O)N[C@@H](C)C(=O)N[C@@H](C)C(=O)NCCOCCOCCOCCOCCC(=O)Oc1c(F)c(F)c(F)c(F)c1F [528 (I-51)]
uptake into Jurkat cells, average loading DAR9 versus DAR2 [1]: greater uptake | uptake into Jurkat cells (cell fluorescence vs conjugate concentration) [1]: strong cell uptake | EC50 ([2]; EC50 in M6PR binding assay for conjugates of compounds of varying multivalency, Table 16D, conjugate, m average loading DAR 2): 2.23 nM | EC50 ([2]; EC50 in M6PR binding assay for conjugates of monovalent compounds of varying linker length and loading, Table 16E, conjugate, m average DAR 2): 2.23 nM | EC50 ([2]; Table 16B, antibody conjugate, average loading DAR 8, read-out: EC50 in M6PR binding assay): 0.3 nM | EC50 ([2]; Table 16D, conjugate, m average loading DAR 9.5, read-out: EC50 in M6PR binding assay for conjugates of compounds of varying multivalency): 0.2 nM | EC50 ([2]; Table 16E, conjugate, m average DAR 9.5, read-out: EC50 in M6PR binding assay for conjugates of monovalent compounds of varying linker length and loading): 0.2 nM | EC50 ([2]; antibody conjugate, average loading DAR 9.5, read-out: EC50 (nM) in M6PR binding assay): 0.2 nM

IC50 [3]: ≥ 500 nM
SMILES: C#CCCCCCOC[C@H]1O[C@H](OC)[C@@H](O[C@H]2O[C@H](CCP(=O)(O)O)[C@@H](O)[C@H](O)[C@@H]2O)[C@@H](O)[C@@H]1O [Compound I-108, (2-((2R,3S,4S,5S,6R)-6-(((2S,3S,4S,5S,6R)-6-((hept-6-yn-1-yloxy)methyl)-4,5-dihydroxy-2-methoxytetrahydro-2H-pyran-3-yl)oxy)-3,4,5-trihydroxytetrahydro-2H-pyran-2-yl)ethyl)phosphonic acid]

SMILES: O=C(CCOCCOCCOCCOCCn1cc(CCCCNC(=S)Nc2ccc(O[C@H]3O[C@H](CCP(=O)(O)O)[C@@H](O)[C@H](O)[C@@H]3O)cc2)nn1)Oc1c(F)c(F)c(F)c(F)c1F [520 (I-7)]
uptake into HepG2 cells [4]: comparable HepG2 cellular uptake | cell uptake of Alexa488-IgE target, WT K562 versus CI-M6PR KO cells [5]: CI-M6PR dependent | EC50 ([2]; Table 16B, antibody conjugate, average loading DAR 4, read-out: EC50 in M6PR binding assay): 0.41 nM | EC50 ([2]; Table 16C, cetuximab (anti-EGFR) conjugate, average loading DAR 8, read-out: EC50 in M6PR binding assay): 0.41 nM | EC50 ([2]; Table 16D, conjugate, m average loading DAR 2, read-out: EC50 in M6PR binding assay for conjugates of compounds of varying multivalency): 3.71 nM | EC50 ([2]; Table 16D, conjugate, m average loading DAR 4, read-out: EC50 in M6PR binding assay for conjugates of compounds of varying multivalency): 0.3 nM | EC50 ([2]; Table 16D, conjugate, m average loading DAR 9, read-out: EC50 in M6PR binding assay for conjugates of compounds of varying multivalency): 0.23 nM | EC50 ([2]; Table 16E, conjugate, m average DAR 2, read-out: EC50 in M6PR binding assay for conjugates of monovalent compounds of varying linker length and loading): 3.71 nM | EC50 ([2]; Table 16E, conjugate, m average DAR 4, read-out: EC50 in M6PR binding assay for conjugates of monovalent compounds of varying linker length and loading): 0.3 nM | EC50 ([2]; Table 16E, conjugate, m average DAR 9, read-out: EC50 in M6PR binding assay for conjugates of monovalent compounds of varying linker length and loading): 0.23 nM | EC50 ([2]; antibody conjugate, average loading DAR 2, read-out: EC50 (nM) in M6PR binding assay): 2.6 nM | EC50 ([2]; antibody conjugate, average loading DAR 4, read-out: EC50 (nM) in M6PR binding assay): 0.22 nM | EC50 [2, 6]: 0.22 nM | binding affinity to M6PR, rank among conjugates tested (FIGS. 7A-7F) ([2]; matuzumab conjugates, I-7 at d8 (DAR 8), I-11 at d4 (DAR 4)): highest

SMILES: O=C(CCCCCc1cn(CCOCCOCCOCCOCCC(=O)Oc2c(F)c(F)c(F)c(F)c2F)nn1)Nc1ccc(O[C@H]2O[C@H](CCP(=O)(O)O)[C@@H](O)[C@H](O)[C@@H]2O)cc1 [513 (I-39)]
uptake into Jurkat cells (cell fluorescence vs conjugate concentration) [1]: strong cell uptake | EC50 [2, 6]: 0.19 nM
